Values after ≈ are worked out from the molar mass of the structure shown.
Tests used:
M. tb (strain H37Rv) [1] = assay: MABA, MIC against M. tb under aerobic conditions; type: cell-based, Mycobacterium tuberculosis
M. tb (strain H37Rv) [2] = assay: LORA, MIC against M. tb under hypoxic conditions (nonreplicating persistent bacteria); type: cell-based, Mycobacterium tuberculosis; details: vs 4 and 3
M. tb [3] = test system: M. tb; design: method as in PMID 19209889; details: ref [22]; cited from earlier work
M. tb [4] = test system: M. tb; design: method as in PMID 19209889; details: ref [22]; cited from earlier work; remark: listed apart in the source
[5] = test system: Mycobacterium tuberculosis (M. tb); design: method as in PMID 19209889; details: vs 4; ref [22]; cited from earlier work
[6] = design: method as in PMID 23733467; details: MDR-TB patients; ref [14]; cited from earlier work
M. tb (strain H37Rv) [7] = test system: M. tb (strain H37Rv); design: method as in PMID 25781074; details: aerobic, growth inhibition ≥90%, ref [15]; cited from earlier work
VERO cells = assay: Cytotoxicity against mammalian cells (VERO), 72 h assay; type: cell-based; details: Chlorocebus sabaeus, cytotoxicity toward VERO cells
M. tb (strain H37Rv) [8] = test system: M. tb (strain H37Rv); design: method as in PMID 25781074; details: hypoxic, growth inhibition ≥90%, ref [15]; cited from earlier work

## Cc1cc(CO[C@@H]2COc3nc([N+](=O)[O-])cn3C2)ccc1OC(F)(F)F [compound 9]
M. tb (strain H37Rv) [1]; MABA, vs 4 and 6
  more active than both 4 and moxifloxacin (6) in MABA: seven- to eight-fold
M. tb (strain H37Rv) [1]; MABA, vs pretomanid
  more potent than pretomanid in the aerobic assay: eight-fold
M. tb (strain H37Rv) [2]
  better than both 4 and linezolid (3) in LORA: about three-fold

## O=[N+]([O-])c1cn2c(n1)O[C@H](COCc1ccc(OC(F)(F)F)cc1)C2 [compound 20]
M. tb [3]
  anaerobic MIC90: 31 µM
M. tb [4]
  aerobic MIC99: 4 to 8 µM
[5]
  less active than 4: 5- to 10 fold

## Cc1ncc([N+](=O)[O-])n1CCO [MET, metronidazole]
[6]
  neurotoxicity in long-term use: too neurotoxic for long-term use

## O=[N+]([O-])c1cn2c(n1)OC[C@@H](OCc1ccc(OC(F)(F)F)cc1)C2 [compound 4, pretomanid]
M. tb (strain H37Rv) [7]
  MIC MABA: 0.50 ± 0.30 µM (≈ 0.18 µg/mL)
VERO cells
  IC50: > 128 µM
M. tb (strain H37Rv) [8]
  MIC LORA: 2.6 ± 1.4 µM (≈ 0.934 µg/mL)

## O=[N+]([O-])c1cnc2n1C[C@H](OCc1ccc(OC(F)(F)F)cc1)CO2 [compound 8]
M. tb (strain H37Rv) [1]; M. tb MIC vs 4
  loss in activity in comparison to its 2-nitro isomer, 4: > 256 fold
